The test relates to Phytophthora infestans. The format is in vivo. The note with it: for Efficacy (obs.)/ %: percentage disease control relative to untreated plants; for Rating: potato plants, spray 200 l/ha, inoculated 24 hours after treatment, degree of infestation.

Like-named read-outs stand apart in the source and are kept apart here.

For the compound `CCCOC(=O)NCCCN(C)C` [Compound (II), propyl 3-(dimethylamino)propylcarbamate], under “400 g/ha”, the “Efficacy (obs.)/ %” value amounted to 0% and the Rating is reported as 8.3. For the same compound, under “600 g/ha”, the “Efficacy (obs.)/ %” value is 18% and the Rating is recorded as 6.8.

As for `O=C(NCc1ncc(C(F)(F)F)cc1Cl)c1c(Cl)cccc1Cl` [Compound (Ia), 2,6-dichloro-N-{[3-chloro-5-(trifluoromethyl)-2-pyridinyl]methyl}benzamide], the “Efficacy (obs.)/ %” value runs as follows: (5 g/ha) 48%; (25 g/ha) 60%. Moreover, the Rating (5 g/ha) turned out to be 4.3 and the Rating (25 g/ha) is 3.3.

These data come from patent US7659292B2 (priority 2001, dated 2010).
